In PubChem BioAssay AID2008 (University of Pittsburgh Molecular Library Screening Center, 2009):
Activity calls are given as the source filed them. No rule for the calls is given here.

test system: Leishmania major promastigote growth inhibition; test: antileishmanial activity against L. major promastigotes – EC50, dose response (AID 2008)

SMILES	EC50
CCOC(=O)c1c2c(n(C)c1C)C(=O)C(=O)c1ccc(Br)cc1-2	85.7 nM
CN(CCN1CCc2ccccc2C1)Cc1nc(Cc2ccccc2F)no1	1400 nM
CC[n+]1c(/C=C/N(C)c2ccccc2)sc2ccc(Cl)cc21	172 nM
COc1ccc(S(=O)(=O)Nc2ccc(O)c3ccccc23)cc1	268 nM
CCC(/C=C1\Sc2ccc(OC)cc2N1CCO)=C\c1sc2ccc(OC)cc2[n+]1CCO	487 nM
COC(=O)CNc1nc(-c2ccccc2F)nc2ccccc12	742 nM
N#Cc1cc(Oc2ccc3ccccc3c2)c(-n2nnc3ccccc32)cc1C#N	> 5000 nM (inactive)
Cc1ccc2nc3cc([N+](=O)[O-])cc([N+](=O)[O-])c3cc2c1	288 nM
COC(=O)c1cccc(Cn2c(Cl)c(/C=N/Nc3ccccc3C)sc2=O)c1	528 nM
COC(=O)c1ccc(-c2ccc(CNCC(O)c3ccccc3)o2)cc1 (stereo not given)	102 nM
Cc1nn(-c2ccccn2)c2c1C(=O)C(Br)CC2 (stereo not given)	967 nM
CCC(C)(c1nnnn1-c1c(C)cccc1C)N(N=O)c1ccccc1Cl (stereo not given)	324 nM
Nc1nsc2ccccc12	391 nM
COc1ccc(NC(=O)/C(Cl)=C(/Cl)S(=O)Cc2ccccc2Cl)cn1 (stereo not given)	241 nM
CCCCCCCCCCCCCCCC[n+]1cccc(C(=O)N(CC)CC)c1	625 nM
O=C(/C=C/c1ccccc1)CC(O)(c1ccccc1)C(F)(F)F (stereo not given)	1240 nM
O=C(CCl)Nc1cccc(-c2cnc3ccccc3n2)c1	1110 nM
O=C(O)CCC(=O)Nc1ccc(N2CCCCCC2)cc1	1740 nM
O=C(Cn1cnc([N+](=O)[O-])c1)Nc1cc(Oc2ccc(Cl)cc2Cl)cc([N+](=O)[O-])c1	1510 nM
Cn1nc(-c2ccc(Cl)cc2)nc2c(=O)n(C)c(=O)nc1-2	> 5000 nM (inactive)
[O-][N+]1=c2ccc(Nc3ccccc3)cc2=NC12CCCCC2	840 nM
COc1cc(NC(C)CCCN)c2ncccc2c1Oc1ccccc1 (stereo not given)	< 10 nM
COC(=O)c1ccc2c(c1)C(C)(C)C(/C=C/c1ccc(OC)c(OC)c1OC)=[N+]2C	2.45 nM

SMILES	EC50
Cc1ccccc1NC1=C/C(=N\S(=O)(=O)c2cccs2)c2ccccc2C1=O	208 nM
CC1=C(C(=O)Nc2cc(-c3cccc(F)c3)[nH]n2)C2(CCCCC2)OC1=O	379 nM
Clc1ccc2[nH]cc(-c3nnnn3-c3ccc4ccccc4c3)c2c1	1540 nM
NC(=O)c1cn(C2OC(CO)C(O)C2O)c2ncnc(N)c12 (stereo not given)	164 nM
COc1cc(-c2c(C#N)c(N)nc(SCc3ccncc3)c2C#N)cc(OC)c1OC	1020 nM
Cc1cccc(OCCn2c(NC(=O)c3ccco3)nc3ccccc32)c1	1870 nM
Cc1cccc(-c2cc3c(N=O)c4ccccc4c-3n[nH]2)c1	1540 nM
Cc1cc(C)c2c(c1)-c1cc(C)nn1C(c1ccc3c(c1)OCO3)N2 (stereo not given)	1320 nM
CNc1ccccc1C(C)(C)c1cc(-c2cccc(Br)c2)no1	2780 nM
Cc1ccc(S(=O)(=O)c2ccc(Oc3cccc(C)c3)cc2)cc1	178 nM
Cc1ccccc1-n1ncc2c([N+](=O)[O-])cc([N+](=O)[O-])cc21	60.9 nM
C[C@@]1(CO)[C@H](O)CC[C@@]2(C)[C@H]1CC[C@H]1C[C@@H]3C[C@@]12CC[C@]3(O)CO	121 nM
Cc1ccc2nc(Cl)c3nnnn3c2c1	765 nM
CN(C)CCOc1ccccc1Cc1ccccc1	498 nM
Cc1nc2c(=O)n(C)c(=O)nc-2n(C)n1	201 nM
Cc1nnc(Nc2ccccn2)c2ccccc12	722 nM
O=C1C2ON(c3ccc(Br)cc3)C(c3cccnc3)C2C(=O)N1C1CCCCC1 (stereo not given)	513 nM
Cc1cc(C)nc(/N=c2/ssnc2Cl)c1	353 nM
CCCOC(=O)CSC1=C(C#N)C(c2ccccc2Cl)CC(=O)N1 (stereo not given)	122 nM
C=CCc1ccc(OCCCCCN2CCOCC2)c(OC)c1	970 nM
COc1ccc(C2=NCC(CSc3nnc(-c4ccc5c(c4)OCO5)o3)S2)cc1 (stereo not given)	187 nM
O=C(c1ccc(-c2ccccc2)c(F)c1)C1CCCN(CCO)C1 (stereo not given)	510 nM
N#CC(c1cccc(Cl)c1)c1ccc2c(C(F)(F)F)cc(C(F)(F)F)nc2n1 (stereo not given)	1180 nM

SMILES	EC50
O=c1c(Cl)nc2cc(Cl)ccc2n1CCNc1ncc(C(F)(F)F)cc1Cl	512 nM
CCOCCN1CCN(c2nnc3n2-c2ccc(Cl)cc2C(c2ccccc2Cl)=NC3)CC1	1170 nM
CCOC(=O)c1nnn(-c2nonc2-n2cccc2)c1CCl	1860 nM
COc1ccc2cc3[n+](cc2c1OC)CCc1cc2c(cc1-3)OCO2	375 nM
O=[N+]([O-])c1ccc(NNC(=S)Nc2ccc(F)cc2)cc1	449 nM
O=C(NC1CCCC1)C(c1ccc(F)cc1)N(Cc1ccc(Cl)cc1)C(=O)CCl (stereo not given)	1760 nM
CC(C)(C)c1ccc(-c2ncccc2O)cc1	299 nM
CCCCCCCCCCCCCCCCn1cc[n+](C)c1	35 nM
CCc1ccc(NSc2ccccc2[N+](=O)[O-])cc1	748 nM
CC(C)(C)c1ccc(-n2nc(C#N)c(Cl)cc2=O)cc1	759 nM
COc1ccc2c3c(cccc13)NN=C2C	255 nM
COc1ccc(Cn2c(-c3ccc(OC)cc3)nc3ccccc32)cc1	1110 nM
CC(C)CCN(C)C1CCN(S(=O)(=O)c2cccc(C(F)(F)F)c2)CC1	9.17 nM
COc1ccc(/C=C/c2cc[n+](C(=O)Cc3ccccc3)cc2)cc1	49.6 nM
O=Nc1c2cc(-c3ccccc3)[nH]nc-2c2ccccc12	2210 nM
c1ccc(CNc2nc(-c3cccs3)nc3ccccc23)cc1	2140 nM
O=C(c1ccccc1)c1c2c(cc3sc4ccccc4[n+]13)-c1cccc3cccc-2c13	504 nM
CN(C)c1nc(-c2ccccn2)nnc1-c1ccccc1	1460 nM
Cc1nc([N+](=O)[O-])nn1C12CC3CC(CC(Cl)(C3)C1)C2	856 nM
O=C(c1cccnc1)N(c1cc2sc(=O)oc2c2ccccc12)S(=O)(=O)c1ccccc1	191 nM
CCCCCCCCCCCCCCCC[n+]1ccc(/C=N/O)cc1	9.38 nM
CCCc1n[nH]c2c1/C(=N/O)CC(c1ccccc1)C2 (stereo not given)	1500 nM
O=C1c2ccccc2C(=O)C12Cc1ccccc1N1CCN(c3ccccc3)CC12 (stereo not given)	1910 nM

SMILES	EC50
c1ccc(C2CCC(N3CCC(N4CCCCC4)CC3)CC2)cc1 (stereo not given)	2530 nM
Cn1cc(CN2CCC(CO)CC2)c(-c2ccc(Oc3ccccc3)cc2)n1	164 nM
Clc1ccccc1C(c1ccccc1)(c1ccccc1)n1ccnc1	145 nM
O=C(Nc1ccc(Cl)cn1)c1ccc([N+](=O)[O-])o1	205 nM
CC1(C)C(=O)C=C[C@]2(C)[C@H]3CC[C@@]4(C)[C@H](c5ccoc5)OC(=O)[C@H]5O[C@]54[C@]3(C)[C@H](O)C[C@@H]12	982 nM
Cc1ccc(NC(=O)N2CCCN(Cc3ccc(F)cc3)C2)cc1C	2940 nM
CSc1ccc(CNC2CN3CCC2CC3)cc1 (stereo not given)	1140 nM
COc1ccccc1-n1cnc2c(c1=O)c1nc3ccccc3nc1n2-c1ccc(C)c(C)c1	81.8 nM
CC1(C)Cc2ccccc2-c2nnc(-c3ccc4ccccc4n3)n21	1020 nM
O=S(=O)(CCSc1nc2ccccc2s1)c1nc2ccccc2s1	716 nM
Fc1cccc(-c2nnn3c2nc(Cl)c2ccccc23)c1	490 nM
CCN(CC)c1ccc(NC(=O)CN2CCN(S(=O)(=O)c3cc(Cl)ccc3OC)CC2)cc1	3640 nM
NCC12CC3CC(C1)CC(c1ccc(Cl)cc1)(C3)C2	354 nM
O=C(NCC(c1cccnc1)N1CCN(c2ccc(F)cc2)CC1)Oc1ccccc1 (stereo not given)	111 nM
c1ccc(-c2cc(-c3nnc4sc(-c5ccccn5)nn34)[nH]n2)cc1	4090 nM
c1cnc2c(c1)ccc1cccnc12	> 5000 nM (inactive)
Nc1cccc2nc3ccccc3cc12	635 nM
COC(=O)[C@@H]1[C@@H](C(=O)OC)C2(c3ccccc3-c3ccccc32)N(c2ccc(Cl)cc2)N1C#N	> 5000 nM (inactive)
CCCCCCCCC[n+]1cccc2c3ccccc3ccc21	2.45 nM
COC(=O)C1CN(C#N)N(c2ccc(Cl)cc2)C12c1ccccc1-c1ccccc12 (stereo not given)	72.9 nM
N#CC(c1ccc(Cl)cc1)c1ccc2c(C(F)(F)F)cc(C(F)(F)F)nc2n1 (stereo not given)	564 nM
O=[N+]([O-])c1ccc(-c2nc(-c3cccs3)c(-c3cccs3)[nH]2)cc1	1970 nM
c1ccc2c(c1)OC(CCCN1CCCCC1)c1ccccc1S2 (stereo not given)	134 nM

SMILES	EC50
Cc1ccc(-c2cc3cccc[n+]3cc2-c2ccc(C)cc2)cc1	228 nM
CCCc1nc2c(=O)n(C)c(=O)nc-2n(C)n1	214 nM
CCOC(=O)N=Nc1c2ccccc2c2nc3no[nH]c3nc12	784 nM
CCOC(=O)c1c(-c2ccc(F)cc2)csc1NC(=O)CCN1CCOCC1	176 nM
COC(=O)c1cc2ccsc2n1Cc1nc(-c2ccc(OC)cc2)oc1C	104 nM
CN(C)c1cc(N/N=C/c2ccc(Cl)cc2)nc(N(C)C)n1	502 nM
CC12CCC(C(=O)N(CCCN3CCN(Cc4ccccc4)CC3)C1=O)C2(C)C (stereo not given)	565 nM
N=c1c2c(n(Cc3ccccc3)c3c1CCC3)CCC2	83.4 nM
CCCCS(=O)(=O)/C=C\C=C/S(=O)(=O)CCCC	1520 nM
COc1cc(CNCc2cccs2)ccc1OCc1ccccc1	162 nM
CCn1nc(/C=C/c2ccccc2)nc2c(=O)n(C)c(=O)nc1-2	> 5000 nM (inactive)
CC(=O)O[C@@H]1C[C@H]2C(C)(C)C(=O)C=C[C@]2(C)[C@H]2CC[C@@]3(C)[C@H](c4ccoc4)OC(=O)[C@H]4O[C@]43[C@@]21C	731 nM
C[n+]1c(-c2ccccc2)cc(CCCCc2cc(-c3ccccc3)[n+](C)c(-c3ccccc3)c2)cc1-c1ccccc1	702 nM
O=C1C(=O)c2c(C(=O)c3ccccc3)coc2-c2ccccc21	1250 nM
COCCCN1CCN(c2nnc3n2-c2sc(Br)cc2C(c2ccccc2Cl)=NC3)CC1	595 nM
Cc1ccc(-c2cc(-c3ccc(C)cc3)[n+](C)o2)cc1	183 nM
NC(C(=O)O)C1CC(Cl)=NO1 (stereo not given)	177 nM
Cc1ccc2c(c1)c(=O)c1c3n2CCN(C(=O)CCl)C3CC1 (stereo not given)	1970 nM
CN(C)C(=S)SSC(=S)N(C)C	97.1 nM
C=CCn1cccc(/C=C/C(=O)c2ccc(C(C)(C)C)cc2)c1=S	1790 nM
Cc1ccc(OCCCCn2ccnc2)c(Cl)c1	131 nM
CN(C)CCCN=c1cc(-c2ccccc2)oc2ccc(Cl)cc12	1640 nM
C[C@H]1C[C@@H](C)C(=O)[C@@H]([C@H](O)CC2CC(=O)NC(=O)C2)C1	1 nM
